Test results as given in patent publication US5440031A, “1,4,10,13-tetraoxa-7,16-diazacyclooctadecane derivatives, pharmaceutical compositions containing them and their use for the removal of toxic metal ions and radioactive isotopes from living organism” (priority 1990, dated 1995).
Structures can show the parent of a compound that is named as a salt.

Legend:
[1] = acute toxicity, LD50/30, injection into blood circulation, 30 days observation; format: in vivo, Swiss mice and Wistar rats; conditions: in vivo, iv; dose causing death of 50% of animals within 30 days; slow injection into the blood circulation during 3 to 5 minutes; mice and rats; probit analysis
Procedure: (§1) The acute toxicity values of the products prepared according to Examples 1 to 16 were determined on laboratory mice and rats in the following manner.
(§2) Solutions containing the compounds in various concentrations were prepared by using physiological saline solution or glucose solution of 5% by weight concentration and the active agents were administered in various concentrations into the blood circulation of the animals by injecting them slowly during 3 to 5 minutes. Groups consisting of 6 to 10 animals (Swiss mice and Wistar rats of both sexes) each were used for the various dose levels. […] The LD50/30 value (i.e. the dose causing the death of 50% of the experimental animals within 30 days) was determined from the number of animals died during this period by using probit analysis/D. J. Finney: Probit Analysis (2nd ed.) Cambridge University Press (1952)/. These values expressed in mmol/kg of body-weight for the active agents according to the invention are summarized in column (B) of Table 1.

[2] = radioactive isotope elimination-increasing effect, isotope into abdominal cavity, whole-body retention; format: in vivo, Swiss mice; conditions: for EI value: effectivity (isotope elimination as % related to control) multiplied by LD50/30, 0-5 weak, 5-50 medium, 50-100 good, above 100 excellent; for F factor: multiplication of isotope elimination relative to untreated animals, i.v. 50 to 100 μmol/kg, 30 to 60 minutes after isotope; for radioactivity excreted from the animal organism within 1 day / radioactivity excreted from the animal organism within 4 days / radioactivity excreted from the animal organism within 7 days: Sr-85 into abdominal cavity, single treatment, 100 μmol/kg (stated for Example 13); for radioactivity excreted from the animal organism within 1 day: control 15%; for radioactivity excreted from the animal organism within 4 days: control 25%; for radioactivity excreted from the animal organism within 7 days: control 30%
Description: The action of the compounds of formula (I) according to the invention, which manifests itself as an increase in the elimination of metal ions damaging the living organism, was investigated by using radioactive strontium or cerium ions on Swiss mice and Wistar rats of both sexes.
The elimination was studied on radioactive isotopes introduced in various routes to various sites, e.g. to the blood circulation, abdominal cavity, lungs, muscles or subcutaneous connective tissue of the experimental animals. The compound increasing the elimination of the isotopes was administered daily once or two times in the form of an injection, powder or liquid aerosol or plaster to the organism of the experimental animals. Thereafter, whole body activity measurements were performed and retention curves were taken up which then were compared to the results obtained in the control group.
The retention curves obtained were analysed on a computer. "Nonlinear Regression by the Code of BMDP-3R" (BMDP Statistical Software Manual, UCLA, Los Angeles, 1990, Chief Ed. W. J. Dixon) computer software was used for this purpose. It could be stated from the results obtained that the curves could be described by a two-component descending exponential function. Two data were calculated for characterizing the effectivity. One of these was the so-called F factor indicating the increase in the elimination in relation to the control and meaning the multiplication of the isotope elimination under effect of the test compound in relation to the untreated animals/see column (C) in Table 1/.
For the illustrative comparison of the compounds according to the invention additional characteristic data, the so-called EI values are given which were obtained by multiplying the extent of isotope elimination as percentage related to the control group (effectivity, E) with the acute toxicity value (LD50/30, innocuous, I)/see column (D) in Table 1/. Although the EI value is numerically not identical to the therapeutic ratio (safety index), it indicates in all cases to a weak or excellent activity of a product.
The radioactive isotope elimination-increasing effects of compounds prepared according to Examples 1 to 16 were compared on Swiss mice as described hereinafter.
An activity of 37 to 74 kBg (1 to 2 μCi) of radioactive strontium (Sr-85Cl2) or radioactive cerium (Ce-144Cl3), respectively, was administered into the abdominal cavity of the animals which were then divided into treatment groups consisting of 5 to 10 animals each. At 30 to 60 minutes after administration of the isotope, the animals of the treated groups were intravenously (i.v.) given the active agent used in an amount to achieve s concentration of 50 to 100 μmol/kg of body-weight in the animal organism for each treatment. The animals of the control groups were similarly treated with the carrier (sterile physiological saline or glucose solution of 5% by weight concentration) without active agent.
The amount of radioactivity introduced to the animal organism was determined immediately after administration of the isotope, thru these measurements were repeated daily or in every two the or three days in a device constructed for the purpose of the whole-body measurements on small animals. The counts observed were related to the starting activity value of the zero (0) day and a so-called retention/time correlation was obtained by considering the activity retained in the organism. The change of activity of the animal organism in the time is illustrated in FIG. 1 where the time (in days) elapsed after the treatment is shown on the abscissa and the whole-body retention as percentage is plotted on the ordinate. It can be seen that the rate of elimination of Sr-85 administered into the abdominal cavity of control animals was slow: within 1 day only 15%, within 4 days 25% and within 7 days 30% of the activity were eliminated from their organism and the elimination was even more delayed in the later period. […]

laboratory mice and rats = assay: acute toxicity, LD50/30, injection into blood circulation, 30 days observation; format: in vivo, Swiss mice and Wistar rats; conditions: dose causing death of 50% of animals within 30 days, slow injection into the blood circulation during 3 to 5 minutes, mice and rats, probit analysis
Procedure: as §1, §2

O=C([O-])C(C(=O)[O-])N1CCOCCOCCN(C(C(=O)[O-])C(=O)[O-])CCOCCOCC1.[Na+].[Na+].[Na+].[Na+] [1/a, N,N'-bis(dicarboxymethyl)-1,4,10,13-tetraoxa-7,16-diazacyclooctadecane tetrasodium salt]
LD50 at 720 h [1]: 327 µmol/kg | EI value [2]: 5.40 | F factor [2]: 1.8

O=C([O-])C(C(=O)[O-])N1CCOCCOCCN(C(C(=O)[O-])C(=O)[O-])CCOCCOCC1.[Na+].[Na+].[Na+].[Na+] [1/b, N,N'-bis(dicarboxymethyl)-1,4,10,13-tetraoxa-7,16-diazacyclooctadecane tetrasodium salt]
Acute toxicity LD50/30 (laboratory mice and rats; 43200 min): 0.379 mmol/kg | EI value [2]: 9.66 | F factor [2]: 2.8

O=C([O-])C(C(=O)[O-])N1CCOCCOCCN(C(C(=O)[O-])C(=O)[O-])CCOCCOCC1.[K+].[K+].[K+].[K+] [3/a, N,N'-bis(dicarboxymethyl)-1,4,10,13-tetraoxa-7,16-diazacyclooctadecane tetrapotassium salt]
LD50 at 720 h [1]: 333 µmol/kg | EI value [2]: 12.30 | F factor [2]: 2.3

O=C([O-])C(C(=O)[O-])N1CCOCCOCCN(C(C(=O)[O-])C(=O)[O-])CCOCCOCC1.[K+].[K+].[K+].[K+] [3/b, N,N'-bis(dicarboxymethyl)-1,4,10,13-tetraoxa-7,16-diazacyclooctadecane tetrapotassium salt]
Acute toxicity LD50/30 (laboratory mice and rats; 43200 min): 0.272 mmol/kg | EI value [2]: 8.90 | F factor [2]: 1.7

O=C(O)C(C(=O)O)N1CCOCCOCCN(C(C(=O)O)C(=O)O)CCOCCOCC1 [Example 2, N,N'-bis(dicarboxymethyl)-1,4,10,13-tetraoxa-7,16-diazacyclooctadecane tetrasodium salt containing disodium hydroxy malonate]
LD50 at 720 h [1]: 368 µmol/kg | EI value [2]: 11.10 | F factor [2]: 3.3

O=C([O-])C(C(=O)[O-])N1CCOCCOCCN(C(C(=O)[O-])C(=O)[O-])CCOCCOCC1.[Mg+2].[Na+].[Na+] [Example 4, N,N'-bis(dicarboxymethyl)-1,4,10,13-tetraoxa-7,16-diazacyclooctadecane magnesium complex disodium salt]
Acute toxicity LD50/30 (laboratory mice and rats): 0.211 mmol/kg | EI value [2]: 7.30 | F factor [2]: 2.3

N.N.O=C([O-])C(C(=O)[O-])N1CCOCCOCCN(C(C(=O)O)C(=O)O)CCOCCOCC1.[Ca+2] [Example 7, N,N'-bis(dicarboxymethyl)-1,4,10,13-tetraoxa-7,16-diazacyclooctadecane calcium complex diammonium]
Acute toxicity LD50/30 (laboratory mice and rats): above 2.5 mmol/kg | EI value [2]: 65.00 | F factor [2]: 1.7

O=C([O-])C(C(=O)[O-])N1CCOCCOCCN(C(C(=O)[O-])C(=O)[O-])CCOCCOCC1.[Ca+2].[Ca+2] [Example 8, N,N'-bis(dicarboxymethyl)-1,4,10,13-tetraoxa-7,16-diazacyclooctadecane calcium complex calcium salt]
Acute toxicity LD50/30 (laboratory mice and rats): above 1.5 mmol/kg | EI value [2]: 58.00 | F factor [2]: 1.6

O=C([O-])C(C(=O)[O-])N1CCOCCOCCN(C(C(=O)[O-])C(=O)[O-])CCOCCOCC1.[Na+].[Na+].[Zn+2] [Example 10, N,N'-bis(dicarboxymethyl)-1,4,10,13-tetraoxa-7,16-diazacyclooctadecane zinc complex disodium salt]
Acute toxicity LD50/30 (laboratory mice and rats): 0.091 mmol/kg | EI value [2]: 3.20 | F factor [2]: 2.3

O=C([O-])C(C(=O)[O-])N1CCOCCOCCN(C(C(=O)[O-])C(=O)O)CCOCCOCC1.[Na+].[Na+].[Na+] [Example 11, N,N'-bis(dicarboxymethyl)-1,4,10,13-tetraoxa-7,16-diazacyclooctadecane trisodium salt]
LD50 at 720 h [1]: 111 µmol/kg | EI value [2]: 2.90 | F factor [2]: 2.6

CC(C(=O)[O-])(C(=O)[O-])N1CCOCCOCCN(C(C(=O)[O-])C(=O)[O-])CCOCCOCC1.[Na+].[Na+].[Na+].[Na+] [Example 12, N-dicarboxymethyl-N'-(1,1'-dicarboxyethyl)-1,4,10,13-tetraoxa-7,16-diazacyclooctadecane tetrasodium salt]
LD50 at 720 h [1]: 305 µmol/kg | EI value [2]: 7.90 | F factor [2]: 1.5

CCC(C(=O)O)(C(=O)O)N1CCOCCOCCN(C(C(=O)O)C(=O)O)CCOCCOCC1 [Example 13, N-dicarboxymethyl-N'-(1,1'-dicarboxypropyl)-1,4,10,13-tetraoxa-7,16-diazacyclooctadecane tetrasodium salt sodium bromide double salt]
LD50 at 720 h [1]: 302 µmol/kg | radioactivity excreted from the animal organism within 1 day [2]: 40% | radioactivity excreted from the animal organism within 4 days [2]: 65% | radioactivity excreted from the animal organism within 7 days [2]: 67% | EI value [2]: 13.30 | F factor [2]: 2.1

CC(C(=O)O)(C(=O)O)N1CCOCCOCCN(C(C)(C(=O)O)C(=O)O)CCOCCOCC1 [Example 15, N,N'-bis(1,1'-dicarboxyethyl)-1,4,10,13-tetraoxa-7,16-diazacyclooctadecanetetrasodium salt]
LD50 at 720 h [1]: 450 µmol/kg | EI value [2]: 6.80 | F factor [2]: 1.3

O=C(O)C(Cc1ccccc1)(C(=O)O)N1CCOCCOCCN(C(Cc2ccccc2)(C(=O)O)C(=O)O)CCOCCOCC1 [Example 16, N,N'-bis(benzyl-dicarboxymethyl)-1,4,10,13-tetraoxa-7,16-diazacyclooctadecane tetrasodium salt sodium bromide double salt]
LD50 at 720 h [1]: 470 µmol/kg | EI value [2]: 7.10 | F factor [2]: 1.3

N,N'-bis(dicarboxymethyl)-1,4,10,13-tetraoxa-7,16-diazacyclooctadecane calcium complex disodium salt containing disodium hydroxymalonate and sodium chloride [6/a]
Acute toxicity LD50/30 (laboratory mice and rats): above 3.0 mmol/kg | EI value [2]: 158.00 | F factor [2]: 3.9

N,N'-bis(dicarboxymethyl)-1,4,10,13-tetraoxa-7,16-diazacyclooctadecane iron(II) complex disodium salt [Example 9]
Acute toxicity LD50/30 (laboratory mice and rats): 0.250 mmol/kg | EI value [2]: 8.25 | F factor [2]: 1.7

N,N'-bis(dicarboxymethyl)-1,4,10,13-tetraoxa-7,16-diazacyclooctadeoane calcium complex disodium salt containing sodium chloride [Example 5]
Acute toxicity LD50/30 (laboratory mice and rats): above 2.5 mmol/kg | radioactivity excreted from the animal organism within 1 day [2]: 81% | radioactivity excreted from the animal organism within 4 days [2]: 84% | radioactivity excreted from the animal organism within 7 days [2]: 85% | EI value [2]: 145.00 | F factor [2]: 3.7
